Article PMC11822212, “High-throughput screening identifies Aurora kinase B as a critical therapeutic target for Merkel cell carcinoma” (Nature Communications, 2025)
Several values for one entry are separate records, joined by “and”; a condition that tells them apart may be missing. Identical values can stand only once. Counter-ions that a name gives are not always drawn. Like-named read-outs stand apart in the source and are kept apart here.

Legend:
Experiment in all cases: qHTS cell viability (CellTiter-Glo, 72 h; primary and follow-up small molecule screen)
Format in all cases: cell-based, human
MCC13 cells (VN-MCC) = test system: MCC13 cells (VN-MCC)
WAGA cells (VP-MCC) = test system: WAGA cells (VP-MCC)
MCC26 cells (VN-MCC) = test system: MCC26 cells (VN-MCC)
MKL-1 cells (VP-MCC) = test system: MKL-1 cells (VP-MCC)
MKL-2 cells (VP-MCC) = test system: MKL-2 cells (VP-MCC)
UISO cells (VN-MCC) = test system: UISO cells (VN-MCC)

Molecule | Area under the dose-response curve (AUC) MCC13 Replicate 1 (MCC13 cells (VN-MCC)) | Area under the dose-response curve (AUC) MCC13 Replicate 2 (MCC13 cells (VN-MCC)) | Area under the dose-response curve (AUC) MCC13 Replicate 3 (MCC13 cells (VN-MCC)) | Area under the dose-response curve (AUC) WAGA Replicate 1 (WAGA cells (VP-MCC)) | Area under the dose-response curve (AUC) WAGA Replicate 2 (WAGA cells (VP-MCC)) | Area under the dose-response curve (AUC) WAGA Replicate 3 (WAGA cells (VP-MCC)) | Area under the dose-response curve (AUC) MCC26 Replicate 1 (MCC26 cells (VN-MCC)) | Area under the dose-response curve (AUC) MCC26 Replicate 2 (MCC26 cells (VN-MCC)) | Area under the dose-response curve (AUC) MCC26 Replicate 3 (MCC26 cells (VN-MCC)) | Area under the dose-response curve (AUC) MKL-1 Replicate 1 (MKL-1 cells (VP-MCC)) | Area under the dose-response curve (AUC) MKL-1 Replicate 2 (MKL-1 cells (VP-MCC)) | Area under the dose-response curve (AUC) MKL-1 Replicate 3 (MKL-1 cells (VP-MCC)) | Area under the dose-response curve (AUC) MKL-2 Replicate 1 (MKL-2 cells (VP-MCC)) | Area under the dose-response curve (AUC) MKL-2 Replicate 2 (MKL-2 cells (VP-MCC)) | Area under the dose-response curve (AUC) MKL-2 Replicate 3 (MKL-2 cells (VP-MCC)) | Area under the dose-response curve (AUC) UISO Replicate 1 (UISO cells (VN-MCC)) | Area under the dose-response curve (AUC) UISO Replicate 2 (UISO cells (VN-MCC)) | Area under the dose-response curve (AUC) UISO Replicate 3 (UISO cells (VN-MCC)) | also measured
Oxamflatin | – | – | – | – | – | – | – | – | – | – | – | – | – | – | – | – | – | – | Area under the dose-response curve (AUC) (MCC13 cells (VN-MCC)): 440.6 and 393.8 and 429.1; Area under the dose-response curve (AUC) (WAGA cells (VP-MCC)): 338.5 and 313.0 and 330.7; Area under the dose-response curve (AUC) (MCC26 cells (VN-MCC)): 406.5 and 378.8 and 411.0; Area under the dose-response curve (AUC) (MKL-1 cells (VP-MCC)): 365.5 and 347.7 and 381.7; Area under the dose-response curve (AUC) (MKL-2 cells (VP-MCC)): 378.9 and 303.8 and 268.6; Area under the dose-response curve (AUC) (UISO cells (VN-MCC)): 391.0 and 406.3 and 400.1
O=C1c2c(O)ccc(O)c2C(=O)c2c(NCCNCCO)ccc(NCCNCCO)c21 [Mitoxantrone dihydrochloride] | 292.1 | 295.3 | 315.4 | 153.5 | 170.4 | 183.6 | 322.6 | 335.6 | 279.8 | 180.6 | 178.5 | 172.4 | 203.7 | 186.2 | 247.3 | 188.5 | 205.7 | 190.2 | –
CCC(=O)CCCCC[C@@H]1NC(=O)[C@H]2CCCCN2C(=O)[C@H]([C@@H](C)CC)NC(=O)[C@H](Cc2cn(OC)c3ccccc23)NC1=O [Apicidin] | 352.8 | 341.2 | 320.0 | 264.4 | 253.3 | 235.6 | 312.3 | 327.5 | 296.4 | 315.8 | 299.2 | 285.0 | 250.3 | 267.1 | 303.9 | 287.8 | 286.2 | 272.4 | –
O=C(/C=C/c1ccc(/C=C/C(=O)Nc2ccc(C3=NCCN3)cc2)cc1)Nc1ccc(C2=NCCN2)cc1 [GW 4869] | 485.4 | 474.1 | 483.0 | 473.9 | 513.7 | 487.4 | 426.9 | 422.1 | 445.3 | 478.1 | 455.5 | 501.6 | 446.9 | 473.7 | 455.4 | 438.7 | 454.7 | 432.9 | –
CC[C@@]1(O)C(=O)OCc2c1cc1n(c2=O)Cc2cc3ccccc3nc2-1 [Camptothecin] | – | – | – | – | – | – | – | – | – | – | – | – | – | – | – | – | – | – | Area under the dose-response curve (AUC) MCC13 Replicate 1 (MCC13 cells (VN-MCC); follow-up screen, MCC13, replicate 1): 224.5; Area under the dose-response curve (AUC) MCC13 Replicate 2 (MCC13 cells (VN-MCC); follow-up screen, MCC13, replicate 2): 221.7; Area under the dose-response curve (AUC) MCC13 Replicate 3 (MCC13 cells (VN-MCC); follow-up screen, MCC13, replicate 3): 254.2; Area under the dose-response curve (AUC) WAGA Replicate 1 (WAGA cells (VP-MCC); follow-up screen, WAGA, replicate 1): 164.4; Area under the dose-response curve (AUC) WAGA Replicate 2 (WAGA cells (VP-MCC); follow-up screen, WAGA, replicate 2): 180.7; Area under the dose-response curve (AUC) WAGA Replicate 3 (WAGA cells (VP-MCC); follow-up screen, WAGA, replicate 3): 159.3; Area under the dose-response curve (AUC) MCC26 Replicate 1 (MCC26 cells (VN-MCC); follow-up screen, MCC26, replicate 1): 203.3; Area under the dose-response curve (AUC) MCC26 Replicate 2 (MCC26 cells (VN-MCC); follow-up screen, MCC26, replicate 2): 207.4; Area under the dose-response curve (AUC) MCC26 Replicate 3 (MCC26 cells (VN-MCC); follow-up screen, MCC26, replicate 3): 184.6; Area under the dose-response curve (AUC) MKL-1 Replicate 1 (MKL-1 cells (VP-MCC); follow-up screen, MKL-1, replicate 1): 168.7; Area under the dose-response curve (AUC) MKL-1 Replicate 2 (MKL-1 cells (VP-MCC); follow-up screen, MKL-1, replicate 2): 185.9; Area under the dose-response curve (AUC) MKL-1 Replicate 3 (MKL-1 cells (VP-MCC); follow-up screen, MKL-1, replicate 3): 170.7; Area under the dose-response curve (AUC) MKL-2 Replicate 1 (MKL-2 cells (VP-MCC); follow-up screen, MKL-2, replicate 1): 160.6; Area under the dose-response curve (AUC) MKL-2 Replicate 2 (MKL-2 cells (VP-MCC); follow-up screen, MKL-2, replicate 2): 161.3; Area under the dose-response curve (AUC) MKL-2 Replicate 3 (MKL-2 cells (VP-MCC); follow-up screen, MKL-2, replicate 3): 224.5; Area under the dose-response curve (AUC) UISO Replicate 1 (UISO cells (VN-MCC); follow-up screen, UISO, replicate 1): 151.6; Area under the dose-response curve (AUC) UISO Replicate 2 (UISO cells (VN-MCC); follow-up screen, UISO, replicate 2): 176.2; Area under the dose-response curve (AUC) UISO Replicate 3 (UISO cells (VN-MCC); follow-up screen, UISO, replicate 3): 177.2
